BigSolDB 2.1

O=C(O)CNC(=O)OCc1ccccc1
solubility (mole fraction)
Details | 283.15 K | 288.15 K | 293.15 K | 298.15 K | 303.15 K | 308.15 K | 313.15 K | 318.15 K | 323.15 K
in 2-butanone | 0.0371 | 0.0437 | 0.0508 | 0.0592 | 0.0692 | 0.082 | 0.0966 | 0.114 | 0.134
in acetone | 0.0617 | 0.0709 | 0.0815 | 0.0942 | 0.108 | 0.123 | 0.14 | 0.169 | 0.197
in acetonitrile | 0.0106 | 0.0132 | 0.0159 | 0.0198 | 0.0251 | 0.032 | 0.0408 | 0.052 | 0.067
in ethanol | 0.0415 | 0.0499 | 0.0611 | 0.0767 | 0.0955 | 0.11 | 0.131 | 0.157 | 0.186
in ethyl acetate | 0.0185 | 0.0222 | 0.026 | 0.0308 | 0.0369 | 0.0442 | 0.053 | 0.0642 | 0.0783
in isobutanol | 0.0149 | 0.0188 | 0.0237 | 0.0315 | 0.0394 | 0.0523 | 0.0665 | 0.0853 | 0.109
in isopropanol | 0.0261 | 0.0338 | 0.0449 | 0.0566 | 0.0707 | 0.0864 | 0.108 | 0.133 | 0.16
in methanol | 0.0654 | 0.0769 | 0.0933 | 0.109 | 0.123 | 0.143 | 0.164 | 0.19 | 0.219
in methyl acetate | 0.0261 | 0.0309 | 0.0366 | 0.0436 | 0.053 | 0.0627 | 0.0737 | 0.0902 | 0.105
in n-butanol | 0.0205 | 0.0257 | 0.032 | 0.04 | 0.0504 | 0.0627 | 0.0786 | 0.0982 | 0.122
in n-pentanol | 0.018 | 0.0221 | 0.0275 | 0.0349 | 0.0429 | 0.0578 | 0.0727 | 0.0886 | 0.111
in n-propanol | 0.0261 | 0.0327 | 0.0399 | 0.0504 | 0.0636 | 0.0794 | 0.0986 | 0.122 | 0.149
